Assay results reported in publication PMC7979765, “trans-Translation inhibitors bind to a novel site on the ribosome and clear Neisseria gonorrhoeae in vivo” (Nature Communications, 2021).
“And” between values parts separate entries of the source, which are not always exact repeats. Identical values can stand only once. Like-named read-outs stand apart in the source and are kept apart here.

Tests used:
trans-translation = assay: microbe, parasite or virus in culture; assay type: cell-based, Escherichia coli
Acinetobacter baumannii = assay: MIC, microbroth dilution; assay type: cell-based
[1] = Liver microsome stability, murine; assay type: in vitro ADME, mouse
Outline: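 Compounds incubated with liver microsomes plus NADPH over 30 min; parent remaining quantified by reverse-phase LC/MS. Half-life from linear regression over several time points.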

[2] = Serum protein binding, murine; assay type: in vitro ADME, mouse; conditions: Eurofins
Method: Serum protein binding was determined using an equilibrium dialysis method as described. The amount of compound in each chamber (buffer and serum) was measured using methods for reverse-phase liquid chromatography/mass spectroscopy methods that were customized for each compound.

Structure (SMILES): O=C(Nc1nnc(-c2ccc(F)cc2)o1)N1CCc2ccccc2C1 [MBX-4132]
- IC50 (trans-translation; Escherichia coli, E. coli non-stop luciferase reporter, Fig. 1B, read-out: in vivo luc-trpAt IC50): 600 nM
- fold induction at 0.046875 µM (trans-translation; Escherichia coli, read-out: fold induction, AVE 190919+190925, [4132] 0.046875 uM): 1.01
- fold induction at 0.0625 µM (trans-translation; Escherichia coli, read-out: fold induction, AVE 190919+190925, [4132] 0.0625 uM): 0.976
- fold induction at 0.09375 µM (trans-translation; Escherichia coli, read-out: fold induction, AVE 190919+190925, [4132] 0.09375 uM): 1.01
- fold induction at 0.125 µM (trans-translation; Escherichia coli, read-out: fold induction, AVE 190919+190925, [4132] 0.125 uM): 1.05
- fold induction at 0.1875 µM (trans-translation; Escherichia coli, read-out: fold induction, AVE 190919+190925, [4132] 0.1875 uM): 1.2
- fold induction at 0.25 µM (trans-translation; Escherichia coli, read-out: fold induction, AVE 190919+190925, [4132] 0.25 uM): 1.35
- fold induction at 0.375 µM (trans-translation; Escherichia coli, read-out: fold induction, AVE 190919+190925, [4132] 0.375 uM): 1.66
- fold induction at 0.5 µM (trans-translation; Escherichia coli, read-out: fold induction, AVE 190919+190925, [4132] 0.5 uM): 2
- fold induction at 0.75 µM (trans-translation; Escherichia coli, read-out: fold induction, AVE 190919+190925, [4132] 0.75 uM): 2.22
- fold induction at 1 µM (trans-translation; Escherichia coli, read-out: fold induction, AVE 190919+190925, [4132] 1 uM): 2.22
- fold induction at 1.5 µM (trans-translation; Escherichia coli, read-out: fold induction, AVE 190919+190925, [4132] 1.5 uM): 2.16
- fold induction at 0.046875 µM (trans-translation; Escherichia coli, read-out: fold induction, AVE per run, [4132] 0.046875 uM, run 190919 or 190925): 1.09
- fold induction at 0.0625 µM (trans-translation; Escherichia coli, read-out: fold induction, AVE per run, [4132] 0.0625 uM, run 190919 or 190925): 1.02
- fold induction at 0.09375 µM (trans-translation; Escherichia coli, read-out: fold induction, AVE per run, [4132] 0.09375 uM, run 190919 or 190925): 1.04
- fold induction at 0.125 µM (trans-translation; Escherichia coli, read-out: fold induction, AVE per run, [4132] 0.125 uM, run 190919 or 190925): 1.06
- fold induction at 0.1875 µM (trans-translation; Escherichia coli, read-out: fold induction, AVE per run, [4132] 0.1875 uM, run 190919 or 190925): 1.16
- fold induction at 0.25 µM (trans-translation; Escherichia coli, read-out: fold induction, AVE per run, [4132] 0.25 uM, run 190919 or 190925): 1.35
- fold induction at 0.375 µM (trans-translation; Escherichia coli, read-out: fold induction, AVE per run, [4132] 0.375 uM, run 190919 or 190925): 1.66
- fold induction at 0.5 µM (trans-translation; Escherichia coli, read-out: fold induction, AVE per run, [4132] 0.5 uM, run 190919 or 190925): 1.82
- fold induction at 0.75 µM (trans-translation; Escherichia coli, read-out: fold induction, AVE per run, [4132] 0.75 uM, run 190919 or 190925): 1.93
- fold induction at 1 µM (trans-translation; Escherichia coli, read-out: fold induction, AVE per run, [4132] 1 uM, run 190919 or 190925): 1.9
- fold induction at 1.5 µM (trans-translation; Escherichia coli, read-out: fold induction, AVE per run, [4132] 1.5 uM, run 190919 or 190925): 1.86
- fold induction, AVE per run (trans-translation; [4132] 0.046875 uM, run 190919 or 190925, 0.046875 µM): 0.9318
- fold induction, AVE per run (trans-translation; [4132] 0.0625 uM, run 190919 or 190925, 0.0625 µM): 0.9331
- fold induction, AVE per run (trans-translation; [4132] 0.09375 uM, run 190919 or 190925, 0.09375 µM): 0.9749
- fold induction, AVE per run (trans-translation; [4132] 0.125 uM, run 190919 or 190925, 0.125 µM): 1.0347
- fold induction, AVE per run (trans-translation; [4132] 0.1875 uM, run 190919 or 190925, 0.1875 µM): 1.234
- fold induction, AVE per run (trans-translation; [4132] 0.25 uM, run 190919 or 190925, 0.25 µM): 1.356
- fold induction, AVE per run (trans-translation; [4132] 0.375 uM, run 190919 or 190925, 0.375 µM): 1.653
- fold induction, AVE per run (trans-translation; [4132] 0.5 uM, run 190919 or 190925, 0.5 µM): 2.18
- fold induction, AVE per run (trans-translation; [4132] 0.75 uM, run 190919 or 190925, 0.75 µM): 2.51
- fold induction, AVE per run (trans-translation; [4132] 1 uM, run 190919 or 190925, 1 µM): 2.546
- fold induction, AVE per run (trans-translation; [4132] 1.5 uM, run 190919 or 190925, 1.5 µM): 2.459
- MIC (Acinetobacter baumannii; Acinetobacter baumannii ATCC 19606, replicates): ≥34 µg/mL
- MIC (Acinetobacter baumannii; Acinetobacter baumannii, ATCC19606, Acinetobacter baumannii ATCC 19606, replicates, read-out: MIC): ≥ 34 µg/mL
- MIC (Acinetobacter baumannii; Acinetobacter baumannii, ATCC19606, strain ATCC 19606, read-out: MIC): ≥ 34 µg/mL
- Microsomal stability (t½, min) Murine ([1]; Reported value, Eurofins): >120 min
- half-life ([1]; mouse, murine liver microsomes, read-out: MMS / Microsomal Stability (t1/2), murine): > 2 h
- Average MLMS t½ ([1]; murine liver microsomes, average of replicates): >2 h
- MLMS t½ ([1]; murine liver microsomes, individual replicates): >2 h
- Serum binding (% bound) Murine ([2]; Replicate 1/2): 99.9% and 95.5%
- fraction unbound ([2]; mouse, serum, Average Value, read-out: Serum binding (% bound) Murine (converted)): 0.023
